In paper PMC10669220, “In Vitro α-Glucosidase and α-Amylase Inhibition, Cytotoxicity and Free Radical Scavenging Profiling of the 6-Halogeno and Mixed 6,8-Dihalogenated 2-Aryl-4-methyl-1,2-dihydroquinazoline 3-Oxides” (Antioxidants, 2023):

Experiments:
[1] = test system: lung cancer (A549) cell line; experiment: MTT cytotoxicity assay, A549; conditions: Homo sapiens, A549, read-out: IC50 A549
Description: (§1) Cells were cultured in sterile Dulbecco’s Minimal Essential Medium (DMEM, Gibco) supplemented with 10% fetal bovine serum (FBS) and 1% penicillin-streptomycin solution. […] Cell counting was carried out using a handheld automated cell counter (Scapter 3.0™, Merck, Burlington, MA, USA) and seeded (1 × 10^4 cells/well) into a 96-well plate. After 24 h, the cells were treated with different concentrations (1, 5, 10, 25 and 50 µM) of the test compounds and reference standards prepared in DMEM. The MTT solution (20 μL) prepared in PBS (5 mg/mL) was added to all the wells, and the plates were incubated for 4 h, followed by 1 h incubation with 100 µL of dimethyl sulfoxide (DMSO) to dissolve the formazan crystals. Untreated cells and 5% DMSO were included in the experiment as negative controls. All experiments were performed in triplicate. The plates were read at 570 nm at a reference wavelength of 630 nm using an ELISA plate reader (Varioskan Flash, ThermoFisher Scientific, Vantaa, Finland). The percentage of cell viability was calculated using the following formula, Cell viability %=At/Ab×100 where At represents the absorbance value of test compound and Ab the absorbance value of the blank. […] The data were expressed as means ± SD.

[2] = test system: human embryonic kidney (HEK293-T) cell line; experiment: MTT cytotoxicity assay, HEK293-T; conditions: Homo sapiens, HEK-293T, read-out: IC50 Hek293-T
Description: as §1

[3] = test system: breast cancer (MCF-7) cell line; experiment: MTT cytotoxicity assay, MCF-7; conditions: Homo sapiens, MCF7, read-out: IC50 MCF-7

## COc1cccc2c1C(=O)c1c(O)c3c(c(O)c1C2=O)C[C@@](O)(C(=O)CO)C[C@@H]3O[C@H]1C[C@H](N)[C@H](O)[C@H](C)O1 [Doxorubicin, doxorubicin, reference compound]
[1]
  IC50: 360 ± 70 nM
[2]
  IC50: 870 ± 40 nM
[3]
  IC50: 250 ± 50 nM
